Measurements taken from paper PMC3772510 (ChemMedChem, 2011).
Values after ≈ are worked out from the molar mass of the structure shown.

Assay: aqueous solubility
Type: physicochemical

Question: For `COc1ccc(C2=N[C@@H](c3ccc(Cl)cc3)[C@@H](c3ccc(Cl)cc3)N2C(=O)N2CCNC(=O)C2)c(OC(C)C)c1` [Nutlin-3a, nutlin-3a], which aqueous solubility is on record?
Answer: The aqueous solubility was 100 µg/mL (≈ 172 µM).
